Measurements: patent US20170042916A1, “ANIMAL TISSUE COLONIZATION AND TREATMENT OF INFECTION” (priority 2014, published 2017)

Legend:
[1] = tested on: mixed bacterial/fungal infectious otitis externa and infectious dermatitis; assay: Example 1: treatment of otitis externa and dermatitis in a Shih Tzu dog; type: in vivo; settings: oral, four weeks, before treatment with the composition
Text: Conner's chest, neck, paws, and face were cleaned and treated twice daily with antimicrobial wipes (Douxo Chlorhexiding pads®) and an antimicrobial lotion (ResiKetoChlor®). The ears were cleaned once daily with a tris-EDTA/ketoconazole solution (TrizUltra plus Keto®) and treated twice daily with an amikacin otic preparation.
The animal had generalized mixed hypotrichosis/alopecia, erythema, hyperpigmentation, and lichenification with crusting over dorsal trunk, legs, paws, and ventrum. Hair on the face and neck was severely matted. The skin underlying the mats was crusted, with moist dermatitis and brown purulent exudate. Lymph node enlargement was palpated in the mandibular, prescapular, and popliteal node groups.
A generalized severe Malassezia (yeast) dermatitis was concentrated mostly on ventrum and paws. […] Fine-needle aspirates of peripheral lymph nodes (left prescapular and left popliteal) were consistent with reactive lymphadenopathy.
The otitis externa was treated initially by cleaning the ears with a salicylic acid based ear cleaner (Otoclean®) and instillation of 0.5 ml of the disclosed composition comprising Trihydroxy in each ear. Mats were removed and the dog was bathed and groomed over two days using (Splash plus® shampoo), followed by antimicrobial shampoo (Douxo Chlorhexidine® shampoo), followed by essential fatty acid cream rinse (Hylyt® cream rinse). […]

Stability in water = type: physicochemical
Text: 3-(trimethoxysilyl) propyldimethyloctadecyl ammonium chloride (hereinafter also referred to as “Trimethoxy”) 104, is illustrated in FIG. 2 only as a precursor to the Trihydroxy molecule, when hydrolyzed by addition to water, shown in FIG. 1. […] Conventional methods of use of Trimethoxy 104 includes addition of a dilute solution in methanol to water. The EPA label required for Trimethoxy compounds states: “Danger. Corrosive. Causes irreversible eye damage and skin burns. Methanol may cause blindness. May be fatal if inhaled. May be harmful if swallowed or absorbed through the skin.”
The compound must then be used within a short period of time, such as a few hours to at most 12 hours, to treat a surface or fabric to produce a permanent surface coating.

Compound | outcome of earlier conventional therapy [1] | stability in water (Stability in water)
OC(Cn1cncn1)(Cn1cncn1)c1ccc(F)cc1F [fluconazole] | failed | 
CCCCCCCCCCCCCCCCCC[N+](C)(C)CCC[Si](OC)(OC)OC.[Cl-] [Trimethoxy, 3-(trimethoxysilyl) propyldimethyloctadecyl ammonium chloride] |  | unstable in water
CCCCCCCCCCCCCCCCCC[N+](C)(C)CCC[Si](O)(O)O.[Cl-] [Trihydroxy, 3-(trihydroxysilyl) propyldimethyloctadecyl ammonium chloride] |  | stable with no other additives in water
amoxicillin/clavulanate | failed | 
